Measurements reported in US11878013B2, “Isoquinoline derivative, preparing method thereof, and pharmaceutical composition for preventing or treating autophagy related diseases containing the same as an active ingredient” (Korea Research Institute of Chemical Technology, priority 2021, dated 2024).
Read-outs that look alike come from different tables or passages of the source.

Legend:
NO production = NO production in LPS-treated Raw 264.7 macrophages (Griess reagent); type: cell-based, mouse; conditions: 1 ug/ml LPS, 24 hours, Raw 264.7 cells; test concentration not given
Experimental: In order to confirm the effect of the compound of Example 1 of the present invention on NO production in Raw 264.7 mouse macrophages in which inflammatory response was induced by LPS, an experiment was performed as follows.
(§1) Raw 264.7 mouse macrophages were aliquoted in a 96-well plate at the density of 1×10^5 cells/well and stabilized in a 37° C., 5% CO2 incubator for 24 hours. The Raw 264.7 cells were treated with the compound of Example 1 by concentration. After 1 hour, the cells were treated with 1 ug/ml of LPS and cultured for 24 hours. For the measurement of NO production, 40 mg/ml of Griess reagent was prepared and it was mixed with the culture supernatant at the same ratio. The mixture was reacted at room temperature for 15 minutes, and absorbance was measured at 540 nm. Based on the results obtained therefrom, the cell viability and NO production rate were expressed as percentages in terms of LPS.

[1] = test system: Raw 264.7 mouse macrophages; assay: Cell viability of LPS-treated Raw 264.7 macrophages; type: cell-based
Experimental: as §1

zebrafish [2] = assay: Whitening effect: melanin synthesis / melanocyte formation in zebrafish; type: in vivo; conditions: 5 μM, treated 10 hours after fertilization, read at 32 hours after fertilization; PTU 200 μM as control
Text: When observing the regeneration of melanin pigment, after inhibiting the formation of melanin pigment, it can be investigated by limiting it to the melanocyte generation pathway, and it is easy to observe the melanin synthesized in the initial stage of development. Therefore, zebrafish is more useful for the study of melanin pigment changes compared to other animal models (Logan D W, Burn S F, Jackson I J. (2006) Regulation of pigmentation in zebrafish melanophores. Pigment Cell Res. 2006 June; 19(3):206-13.).
Particularly, zebrafish fertilized eggs 10 hours after fertilization were placed in a 24-well plate (10 eggs/well), and 1 ml of egg water was added to each well of the plate. The compound of Example 1 was added to each well at the concentrations of 0.1 μM and 1 μM, so that the final volume of each well was 2 ml. Then, each 24-well plate was wrapped in foil to block light, and then incubated in a 28° C. incubator for 22 hours. At 32 hours after fertilization, in order to photograph the formation of black melanocytes, the chorion of the developing embryo was peeled off using a forcep (Fine Science Tools). After anesthetizing the developing embryo with Tricaine (4 g/L), the embryo was photographed on 3% methyl cellulose. As the equipment for photographing the developing embryo, a LEICA MZ10F fluorescence microscope, a LEICA DFC425 camera, and Leica Application Suite software (v4.5) were used. In all the experimental procedures, egg water sterilized after dissolving 60 mg/L of sea salt (Sigma-Aldrich, S9883) in tertiary distilled water was used as a solution for culturing the developing embryo. As a control group, a solvent control group (0.4% DMSO) and phenylthiourea (200 μM PTU), known as a tyrosinase inhibitor, were used (FIG. 6A).
In the same manner, experiments were performed with the compound of Comparative Example 1 at the concentrations of 0.5 μM, 1 μM, and 5 μM, and the results are shown in FIG. 6B.
On the other hand, in order to confirm the ability of the compound of the present invention to inhibit the melanin synthesis of the already generated melanocytes, the following experiment was performed with juvenile fish 60 hours after fertilization. Particularly, juvenile fish 60 hours after fertilization were placed in a 24-well plate (10/well), and 1 ml of egg water was added to each well of the plate. The compound of Example 1 was added to each well at the concentrations of 10 μM and 20 μM, so that the final volume of each well was 2 ml. Then, each 24-well plate was wrapped in foil to block light, and then incubated in a 28° C. incubator for 12 hours. In order to photograph the formation of black melanocytes, the developing embryo was anesthetized with Tricaine (4 g/L), and then the embryo was photographed on 3% methyl cellulose. […]

melanogenesis = conditions: Bioorganic & Medicinal Chemistry Letters 30 (2020) 127201; cited from earlier work
artificial skin tissue = assay: Skin toxicity test on artificial skin (MTT); type: cell-based; conditions: 5% SDS control group
Experimental: In order to evaluate the skin toxicity that may be induced upon skin contact of the compound of Example 1 of the present invention, the following experiment was performed using the artificial skin prepared with a structure similar to the skin of a living body.
Particularly, the experiment was performed according to OECD Guideline for the Testing of Chemicals No. 439, OECD (2010) and the method recommended by the manufacturer (Tegoscience).
First, the artificial skin cultured in agarose medium was transferred to a 12-well cell culture plate, to which culture medium was added, followed by culture in a humidified 37° C. 5% CO2 incubator for one day. The medium on the artificial skin culture surface was eliminated, and 90 μl of the compound of Example 1 of the present invention diluted with PBS was evenly applied to the skin surface, followed by incubation at room temperature for 15 minutes. The cell surface was washed twice with 10 ml of PBS, and a fresh culture medium was added, followed by incubation in a humidified 37° C. 5% CO2 incubator for 42 hours. In order to measure the viability of the skin, the artificial skin was transferred to a 12-well plate containing 2 ml of MTT solution (0.3 mg/ml), followed by culture for 3 hours. The stained artificial skin tissue was taken and transferred to a tube containing 500 μl of 0.04 N-isopropanol, and then incubated with shaking for 4 hours to decolorize. The solution was centrifuged at 13,000 rpm for 5 minutes, 100 μl of the supernatant was transferred to each well of a 96-well plate, and absorbance was measured at 570 nm.

[3] = test system: artificial corneal tissue; assay: Ocular toxicity test on artificial cornea (MTT); type: cell-based; conditions: 10% acetic acid control group
Experimental: In order to evaluate the ocular toxicity that may be induced upon ocular exposure of the compound of Example 1 of the present invention, the following experiment was performed using the cultured artificial cornea.
The artificial corneal tissue cultured in agarose medium was transferred to a 12-well cell culture plate, to which culture medium was added, followed by culture in a humidified 37° C. 5% CO2 incubator for one day. The medium on the artificial cornea culture surface was eliminated, and 30 μl of the compound of Example 1 of the present invention diluted with PBS was evenly applied to the cornea surface, followed by incubation at room temperature for 30 minutes. The cell surface was washed twice with 10 ml of PBS, and a fresh culture medium was added, followed by incubation in a humidified 37° C. 5% CO2 incubator for 30 minutes. In order to measure the viability of the cornea, the artificial cornea was transferred to a 12-well plate containing 2 ml of MTT solution (1 mg/ml), followed by culture for 3 hours. The stained artificial corneal tissue was taken and transferred to a tube containing 1.5 ml of isopropanol, and then incubated with shaking to decolorize. The solution was centrifuged at 13,000 rpm for 5 minutes, 100 μl of the supernatant was transferred to each well of a 96-well plate, and absorbance was measured at 570 nm.

zebrafish [4] = assay: Fatty liver inhibitory effect in tamoxifen-treated zebrafish juvenile fish (LipidGreen2 staining); type: in vivo; conditions: 5 μM tamoxifen alone, 22 hours (FIG. 8 top)
Experimental: In order to evaluate the inhibitory efficacy of the novel isoquinoline derivative of the present invention on fatty liver, an experiment was performed as follows using LipidGreen2 staining reagent capable of staining lipid droplets.
Particularly, the zebrafish used in this Experimental Example were juvenile fish 5 days after fertilization. Healthy juvenile fish were placed in a 24-well plate (10/well), and 1 ml of egg water was added to each well of the plate. As a negative control that could not regulate fatty liver, DMSO diluted at 0.4% was exposed to juvenile fish, and tamoxifen (Sigma-Aldrich, T5648) diluted at 5 μM was exposed to juvenile fish to control […] fatty liver. In order to investigate the fatty liver inhibitory efficacy of the compound of Example 1 of the present invention, the compound (0.5 μM, 1 μM and 5 μM) was mixed with 5 μM tamoxifen and exposed to juvenile fish (final volume of each well: 2 ml). The 24-well plate containing the compound was wrapped in foil to block light, and then incubated in a 28° C. incubator for 22 hours. The plate was washed with egg water 3 times for 5 minutes to remove the compound from each well. For fat-specific staining, LipidGreen2 diluted at 5 μM was exposed to juvenile fish for 30 minutes, and then washed 3 times with egg water for 5 minutes. To evaluate the fatty liver of zebrafish juvenile fish, the developing embryo was anesthetized with Tricaine (4 g/L), and then photographed on 3% methyl cellulose. As the equipment for photographing the developing embryo, a LEICA MZ10F fluorescence microscope, a LEICA DFC425 camera, and Leica Application Suite software (v4.5) were used. For the fluorescence wavelength, a GFP Plants filter set (Excitation 470/40 nm, Emission 525/50 nm) was used. To quantify the liver area and the degree of fat staining of juvenile fish on the image, the area and the fluorescence intensity of the liver part of each image were quantified using ImageJ 1.50i software (National Institutes of Health, USA) and converted into heatmap images.

[5] = LPS-treated Raw 264.7 cells, 24 hours, test concentration not given

1-((4-Fluorophenyl)Thio) Isoquinoline [Comparative Example 1, reference compound]
NO production (% of control) (NO production): 70 % of control | Cell viability (% of control) [1]: 95 % of control

Fc1ccc(Sc2nccc3ccccc23)cc1 [Comparative Example 1, 1-((4-Fluorophenyl)Thio) Isoquinoline, reference compound]
synthesis of melanin (zebrafish [2]): level similar to that of the PTU-treated group | anti-melanogenic effect (melanogenesis): anti-melanogenic effect

O=S(=O)(c1ccc(F)cc1)c1nccc2ccccc12 [Comparative Example 2, 1-((4-Fluorophenyl) Sulfonyl)Isoquinoline, reference compound]
NO production (% of control) (NO production): 65 % of control | Cell viability (% of control) [1, 5]: 73 % of control

[O-][S+](c1ccc(F)cc1)c1ccnc2ccccc12 (centres unmarked) [Example 2, 4-((4-Fluorophenyl)Sulfinyl)Quinoline]
NO production (% of control) (NO production): 26 % of control | Cell viability (% of control) [1, 5]: 100 % of control

[O-][S+](c1ccc(F)cc1F)c1nccc2ccccc12 (centres unmarked) [Example 3, 1-((2,4-Difluorophenyl)Sulfinyl)Isoquinoline]
NO production (% of control) (NO production): 30 % of control | Cell viability (% of control) [1, 5]: 103 % of control

[O-][S+](c1ccc(Cl)cc1)c1nccc2ccccc12 (centres unmarked) [Example 4, 1-((4-Chlorophenyl)Sulfinyl)Isoquinoline]
NO production (% of control) (NO production): 40 % of control | Cell viability (% of control) [1, 5]: 96 % of control

[O-][S+](c1ccc(C(F)(F)F)cc1)c1nccc2ccccc12 (centres unmarked) [Example 5, 1-((4-(Trifluoromethyl)Phenyl)Sulfinyl) Isoquinoline]
NO production (% of control) (NO production): 25 % of control | Cell viability (% of control) [1, 5]: 101 % of control

CCCCCCCCCCCCOS(=O)(=O)[O-].[Na+] [SDS, reference compound]
MTT color development of artificial skin (artificial skin tissue): significant decrease of the MTT color development

CC(=O)O [acetic acid, reference compound]
MTT color development of artificial cornea [3]: significant decrease of the MTT color development

CC/C(=C(\c1ccccc1)c1ccc(OCCN(C)C)cc1)c1ccccc1 [tamoxifen, reference compound]
liver area (zebrafish [4]): maintained at the liver area level of normal juvenile fish
